Experimental data from patent publication US20060234985A1, “Combination therapy comprising a bisphosphonate and a hmg-coa reductase inhibitor” (priority 2002, published 2006).

Legend:
[1] = system: myeloma cell line LP-1; experiment: tetrazolium reduction (Promega MTS) assay with isobologram analysis, LP-1; format: cell-based, human
Protocol: (§1) We investigated the cytotoxic effect of the HMG-CoA reductase inhibitor fluvastatin on the human multiple myeloma cell lines LP-1, OPM-2, U266, NCI-H929 and RPMI-8226 in vitro using a tetrazolium reduction assay. After 3 days culture in the presence of 0 to 50 μM fluvastatin, the Promega MTS assay reagent was used to determine the level of inhibition of cell proliferation and/or cell death.
(§2) Using the same assay we investigated whether the activity of fluvastatin against multiple myeloma in vitro could be enhanced by the addition of the bisphosphonate Zometa® (zoledronic acid). Using 80% cell inhibition as an end point, isobolograms were constructed to visualize the interaction between fluvastatin and Zometa®.

[2] = system: OPM-2; experiment: tetrazolium reduction (Promega MTS) assay, OPM-2; format: cell-based, human; conditions: 3 days culture
Protocol: as §1

[3] = system: U266; experiment: tetrazolium reduction (Promega MTS) assay, U266; format: cell-based, human; conditions: 3 days culture
Protocol: as §1

[4] = system: human multiple myeloma cell lines LP-1, OPM-2, U266, NCI-H929 and RPMI-8226; experiment: tetrazolium reduction (Promega MTS) assay of cell proliferation and/or cell death, myeloma cell line panel; format: cell-based; conditions: 3 days culture, p<0.05 by paired Student's t-test
Protocol: as §1
as §2, with “Zometa®. […] To illustrate this point, >50 μM fluvastatin or […] Zometa® alone was required to induce 80% cell death in the myeloma cell line LP-1 but the combination of 25 μM fluvastatin and 0.21 μM Zometa® had the same effect.” for “Zometa®.”

Row | SMILES | concentration required to induce 80% cell death ([1]; Zometa alone) | inhibition at 50 μM [2] | inhibition at 50 μM [3] | concentration required to induce 80% cell death ([1]; fluvastatin alone) | inhibition of proliferation ([4]; 25 μM and 50 μM, all cell lines) | fluvastatin concentration as low as which significantly inhibited proliferation ([4]; all cell lines except RPMI-8226)
1 | O=P(O)(O)C(O)(Cn1ccnc1)P(=O)(O)O [Zometa®, 2-(imidazol-1yl)-1-hydroxyethane-1,1-diphosphonic acid] | > 100 µM |  |  |  |  | 
2 | CC(C)n1c(/C=C/C(O)CC(O)CC(=O)O)c(-c2ccc(F)cc2)c2ccccc21 (stereo not drawn) [fluvastatin] |  | > 90% | 45% | > 50 µM | significantly inhibited proliferation | 2.5 µM
